Source: PubChem BioAssay (NCI)
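Results reflect a 48-hour exposure of cells in 96-well plates to compound at five concentrations. Definition used: TGI = concentration required for complete inhibition of growth.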

Legend:
Test in all cases: DTP human tumour cell line panel, 48 h
[1] = system: 786-0 renal
[2] = system: A498 renal
[3] = system: A549 NSCLC
[4] = system: ACHN renal
[5] = system: CCRF-CEM leukemia
[6] = system: COLO 205 colon
[7] = system: DLD-1 colon
[8] = system: DMS 114 small cell lung
[9] = system: DMS 273 small cell lung
[10] = system: EKVX NSCLC
[11] = system: HCC-2998 colon
[12] = system: HCT-116 colon
[13] = system: HCT-15 colon
[14] = system: HL-60(TB) leukemia
[15] = system: HOP-62 NSCLC
[16] = system: HT29 colon
[17] = system: IGROV1 ovarian
[18] = system: K-562 leukemia
[19] = system: KM12 colon
[20] = system: KM20L2 colon
[21] = system: LOX IMVI melanoma
[22] = system: LXFL 529 NSCLC
[23] = system: M14 melanoma
[24] = system: M19-MEL melanoma
[25] = system: MALME-3M melanoma
[26] = system: MOLT-4 leukemia
[27] = system: NCI-H226 lung
[28] = system: NCI-H23 lung
[29] = system: NCI-H460 lung
[30] = system: NCI-H522 lung
[31] = system: OVCAR-4 ovarian
[32] = system: OVCAR-5 ovarian
[33] = system: OVCAR-8 ovarian
[34] = system: RPMI-8226 leukemia
[35] = system: RXF 393 renal
[36] = system: SF-295 CNS
[37] = system: SF-539 CNS
[38] = system: SK-MEL-2 melanoma
[39] = system: SK-MEL-28 melanoma
[40] = system: SK-MEL-5 melanoma
[41] = system: SK-OV-3 ovarian
[42] = system: SN12C renal
[43] = system: SNB-19 CNS
[44] = system: SNB-75 CNS
[45] = system: SNB-78 CNS
[46] = system: SR leukemia
[47] = system: SW-620 colon
[48] = system: TK-10 renal
[49] = system: U251 CNS
[50] = system: UACC-257 melanoma
[51] = system: UACC-62 melanoma
[52] = system: UO-31 renal
[53] = system: XF 498 CNS
[54] = system: HOP-18 NSCLC
[55] = system: OVCAR-3 ovarian
[56] = system: SF-268 CNS
[57] = system: CAKI-1 renal
[58] = system: HOP-92 NSCLC

## Cc1ccc(C[P+]2(c3ccccc3)CCCCC2)cc1
[1]
  TGI: > 100 µM
[2]
  TGI: > 100 µM
[3]
  TGI: > 100 µM
[4]
  TGI: > 100 µM
[5]
  TGI: > 100 µM
[6]
  TGI: 30.2 µM
[7]
  TGI: > 100 µM
[8]
  TGI: 64.1 µM
[9]
  TGI: > 100 µM
[10]
  TGI: > 100 µM
[11]
  TGI: 60.8 µM
[12]
  TGI: > 100 µM
[13]
  TGI: > 100 µM
[14]
  TGI: 33.6 µM
[15]
  TGI: > 100 µM
[16]
  TGI: > 100 µM
[17]
  TGI: > 100 µM
[18]
  TGI: > 100 µM
[19]
  TGI: > 100 µM
[20]
  TGI: > 100 µM
[21]
  TGI: > 100 µM
[22]
  TGI: 85.6 µM
[23]
  TGI: > 100 µM
[24]
  TGI: 50.5 µM
[25]
  TGI: > 100 µM
[26]
  TGI: > 100 µM
[27]
  TGI: > 100 µM
[28]
  TGI: > 100 µM
[29]
  TGI: > 100 µM
[30]
  TGI: > 100 µM
[31]
  TGI: > 100 µM
[32]
  TGI: > 100 µM
[33]
  TGI: > 100 µM
[34]
  TGI: 46.8 µM
[35]
  TGI: > 100 µM
[36]
  TGI: > 100 µM
[37]
  TGI: > 100 µM
[38]
  TGI: 80.6 µM
[39]
  TGI: > 100 µM
[40]
  TGI: 24.4 µM
[41]
  TGI: > 100 µM
[42]
  TGI: > 100 µM
[43]
  TGI: > 100 µM
[44]
  TGI: 76.9 µM
[45]
  TGI: 92.4 µM
[46]
  TGI: 90.9 µM
[47]
  TGI: > 100 µM
[48]
  TGI: > 100 µM
[49]
  TGI: 42.4 µM
[50]
  TGI: 32.6 µM
[51]
  TGI: 66.2 µM
[52]
  TGI: > 100 µM
[53]
  TGI: 0.537 µM

## CCCc1c[nH]c(-c2ccc(-c3cc(CCC)c(C=O)[nH]3)s2)c1
[1]
  TGI: 27.7 µM
[2]
  TGI: 20.5 µM
[3]
  TGI: 17.6 µM
[4]
  TGI: 33.5 µM
[5]
  TGI: 91.4 µM
[7]
  TGI: 28.4 µM
[8]
  TGI: 27.8 µM
[9]
  TGI: 30.3 µM
[12]
  TGI: 31.9 µM
[13]
  TGI: 29.6 µM
[14]
  TGI: 49.8 µM
[54]
  TGI: 43 µM
[16]
  TGI: 18.3 µM
[17]
  TGI: 45.5 µM
[18]
  TGI: 49.8 µM
[19]
  TGI: 28.5 µM
[21]
  TGI: 27.7 µM
[22]
  TGI: 32.8 µM
[23]
  TGI: 24.5 µM
[24]
  TGI: 21.6 µM
[25]
  TGI: 30 µM
[26]
  TGI: 86.2 µM
[27]
  TGI: 33.3 µM
[28]
  TGI: 42.4 µM
[29]
  TGI: 16.9 µM
[30]
  TGI: 31.1 µM
[55]
  TGI: 30.8 µM
[31]
  TGI: 35.2 µM
[33]
  TGI: 26.5 µM
[35]
  TGI: 36.1 µM
[56]
  TGI: 34.6 µM
[36]
  TGI: 33.1 µM
[37]
  TGI: 32.8 µM
[38]
  TGI: 28.5 µM
[39]
  TGI: 26.5 µM
[40]
  TGI: 30.6 µM
[41]
  TGI: 32.8 µM
[42]
  TGI: 30.2 µM
[43]
  TGI: 37 µM
[44]
  TGI: 34.8 µM
[45]
  TGI: 37.2 µM
[47]
  TGI: 33.7 µM
[48]
  TGI: 28.7 µM
[49]
  TGI: 29.2 µM
[50]
  TGI: 31.2 µM
[51]
  TGI: 31.2 µM
[53]
  TGI: 32.7 µM

## COc1c(NC(C)=O)cc(C)cc1NC(C)=O
[1]
  TGI: > 100 µM
[2]
  TGI: > 100 µM
[3]
  TGI: > 100 µM
[4]
  TGI: > 100 µM
[57]
  TGI: > 100 µM
[5]
  TGI: > 100 µM
[6]
  TGI: > 100 µM
[7]
  TGI: > 100 µM
[8]
  TGI: > 100 µM
[9]
  TGI: > 100 µM
[10]
  TGI: > 100 µM
[11]
  TGI: > 100 µM
[12]
  TGI: > 100 µM
[13]
  TGI: > 100 µM
[14]
  TGI: > 100 µM
[15]
  TGI: > 100 µM
[58]
  TGI: > 100 µM
[18]
  TGI: > 100 µM
[19]
  TGI: > 100 µM
[21]
  TGI: > 100 µM
[23]
  TGI: > 100 µM
[24]
  TGI: > 100 µM
[26]
  TGI: > 100 µM
[29]
  TGI: > 100 µM
[30]
  TGI: > 100 µM
[55]
  TGI: > 100 µM
[31]
  TGI: > 100 µM
[33]
  TGI: > 100 µM
[34]
  TGI: > 100 µM
[35]
  TGI: > 100 µM
[56]
  TGI: > 100 µM
[36]
  TGI: > 100 µM
[37]
  TGI: > 100 µM
[38]
  TGI: > 100 µM
[39]
  TGI: > 100 µM
[40]
  TGI: > 100 µM
[41]
  TGI: > 100 µM
[42]
  TGI: > 100 µM
[44]
  TGI: > 100 µM
[45]
  TGI: > 100 µM
[46]
  TGI: > 100 µM
[47]
  TGI: > 100 µM
[48]
  TGI: > 100 µM
[49]
  TGI: > 100 µM
[50]
  TGI: > 100 µM
[51]
  TGI: > 100 µM
[53]
  TGI: > 100 µM

## N#C/C(=C\c1ccc(O)c(O)c1)C(=O)NC1CCC(CC2CCC(NC(=O)/C(C#N)=C/c3ccc(O)c(O)c3)CC2)CC1 (stereo not drawn)
[1]
  TGI: 7.37 µM
[2]
  TGI: > 100 µM
[3]
  TGI: 4.56 µM
[4]
  TGI: 4.24 µM
[57]
  TGI: > 29.3 µM
[5]
  TGI: 4.36 µM
[6]
  TGI: 2.51 µM
[7]
  TGI: > 40.4 µM
[9]
  TGI: 0.832 µM
[10]
  TGI: 45.1 µM
[11]
  TGI: 7.43 µM
[12]
  TGI: 0.642 µM
[13]
  TGI: 32.7 µM
[14]
  TGI: 6.09 µM
[54]
  TGI: > 100 µM
[15]
  TGI: 4.06 µM
[58]
  TGI: 6.31 µM
[16]
  TGI: 3 µM
[18]
  TGI: 4.93 µM
[19]
  TGI: 2.92 µM
[20]
  TGI: 3.81 µM
[21]
  TGI: 1.22 µM
[22]
  TGI: 28.1 µM
[23]
  TGI: 6.83 µM
[24]
  TGI: 5.23 µM
[25]
  TGI: 15 µM
[26]
  TGI: > 57.5 µM
[27]
  TGI: 14.3 µM
[28]
  TGI: 3.89 µM
[29]
  TGI: 1.13 µM
[30]
  TGI: 4.71 µM
[55]
  TGI: 3.96 µM
[31]
  TGI: 40.6 µM
[32]
  TGI: 4.09 µM
[33]
  TGI: 10.4 µM
[34]
  TGI: > 25.2 µM
[35]
  TGI: 12.8 µM
[56]
  TGI: 5.46 µM
[36]
  TGI: 3.55 µM
[37]
  TGI: 2.67 µM
[38]
  TGI: 3.89 µM
[39]
  TGI: > 100 µM
[40]
  TGI: 12.8 µM
[41]
  TGI: > 41.4 µM
[42]
  TGI: 7.23 µM
[43]
  TGI: > 29.9 µM
[44]
  TGI: 1.69 µM
[45]
  TGI: 5.37 µM
[46]
  TGI: 3.36 µM
[47]
  TGI: 25.7 µM
[48]
  TGI: > 54.7 µM
[49]
  TGI: 4.5 µM
[50]
  TGI: > 24.3 µM
[51]
  TGI: 3.07 µM
[52]
  TGI: 4.97 µM
[53]
  TGI: 16.5 µM
